Results reported in patent US20030229030A1, “Method of treating interleukin-6-mediated inflammatory diseases” (priority 2002, published 2003).
Where “and” joins values, the source holds several entries; their conditions need not be identical. Identical values can stand only once. Marks after values point to notes of the source that are not given here. Ends that are not written are not given here.

Columns and labels:
[1] = tested on: IL-6 secretion from hCBMC; assay: IL-6 secretion from human cord blood-derived mast cells (hCBMC), ELISA; format: cell-based; conditions: for secretion of IL-6 (FIG. 3): n=4
Method: (§1) Human cord blood-derived mast cells (HCBMC) were grown from CD34+ progenitor mononuclear umbilical cells isolated from umbilical cord blood by positive selection of AC133 (CD 133+/CD34+high) cells by magnetic cell sorting (Miltenyi Biotec, Auburn, Calif.). CD34+ cells were then cultured in Isocove's Modified Dulbecco's Medium (1MDM) containing 100 ng/ml Stem Cell Factor (from Amgen, Thousand Oaks, Calif.) plus test components in 10% FBS at 37° C. in 5% CO2 balanced air. By 10 weeks, 95% of the cells in culture could be identified as mast cells by immuno-staining for tryptase. hCBMC were washed three times in PBS and resuspended in culture medium (1×10^5 cells/200 ul sample). Test substances, e.g., IL-1 were added and cells were incubated at 37° C. in 5% CO2 for six hours for dose-response experiments or for the indicated times in time-course experiments. IL-6 and tryptase were measured in cell-free supernatant fluids by ELISA (R&D Systems, Minneapolis, Minn.) and fluoroenzymeimmunoassay (Pharmacia, Uppsala, Sweden), respectively.
(§2) Dose-response of IL-6 and tryptase secretion from hCBMC and HMC-1 cells were tested after stimulation for six hours with indicated concentrations of IL-1 or other stimuli. Time-course of IL.6 production induced by 50 ng/ml of IL-1 a from CBMC or by 10 ng/ml IL-1 from HMC-1 cells could be tested.
The data in general represent means +/− standard error of the mean from 3 to 4 experiments done in duplicate for each cell type used.

[2] = tested on: IL-6 production from rat peritoneal macrophages; assay: IL-6 production from LPS-stimulated rat peritoneal macrophages; format: cell-based; conditions: rat macrophages stimulated by LPS; quercetin dihydrate 100 μM, 10 mins prior to stimulus, 6 hrs
Excerpt: (§3) In this experiment, the effect of quercetin on the production of IL-6 and TNF-a from rat peritoneal macrophages and human mast cells that are involved in inflammation was studied. [table]

[3] = tested on: TNF-α production from rat peritoneal macrophages; assay: TNF-α production from LPS-stimulated rat peritoneal macrophages; format: cell-based; conditions: rat macrophages stimulated by LPS; quercetin dihydrate 100 μM, 10 mins prior to stimulus, 6 hrs
Excerpt: as §3

[4] = tested on: TNF-α production from human mast cells (hCBMC); assay: TNF-α production from hCBMC stimulated by IgE and anti-IgE; format: cell-based; conditions: quercetin dihydrate 100 μM, 10 mins prior to stimulus, 6 hrs
Excerpt: as §3

[5] = tested on: IL-6 secretion from human mast cells; assay: IL-6 production and secretion from human mast cells, quercetin alone or with IL-1; format: cell-based
Method: as §1
In this experiment, the effects of quercetin, alone or together with IL-1, on the production and secretion of IL-6 from human mast cells was studied.

[6] = tested on: IL-6 secretion from HMC-1 cells; assay: IL-6 secretion from HMC-1 human leukemic mast cells; format: cell-based; conditions: quercetin 10 μM, IL-10 2 ng/ml
Method: Human leukemic mast cells (HMC-1) was obtained from Dr. Butterfield (Mayo Clinic, Rochester, Minn.), and cultured in IMDM medium supplemented with 10% FBS, PBS and 2 μM alpha.thioglycerol. HCBMC or HMC-I cells 2×10^5/200 μl sample were stimulated in full culture medium as indicated.
as §2
The effect of IL-10 on HMC-1 leukemic cells producing IL-6, especially cells stimulated by IL-1 that induces selective release of IL-6, was studied alone or together with a flavonoid compound.

[7] = tested on: tryptase secretion from hCBMC; assay: Tryptase secretion from hCBMC mast cell granules, fluoroenzymeimmunoassay; format: cell-based, human; conditions: stimulus alone: CRH 5 × 10^−5M, IL-1 50 ng/ml, anti-IgE 10 μg/ml
Method: as §1
Dose-response of IL-6 and tryptase secretion from hCBMC and HMC-1 cells were tested after stimulation for six hours with indicated concentrations of IL-1 or other stimuli. Time-course of IL.6 production induced by 50 ng/ml of IL-1 a from CBMC or by 10 ng/ml IL-1 from HMC-1 cells could be tested. […]

[8] = hCBMC + anti-IgE, azelastine 1 μM, quercetin 10 μM
[9] = hCBMC, substance alone: anti-IgE, azelastine 1 μM, quercetin 10 μM
[10] = IL-1 50 ng/ml + quercetin 10 μM
[11] = IL-1 50 ng/ml + quercetin 100 μM
[12] = HMC-1, substance alone: IL-1 50 ng/ml

O=c1c(O)c(-c2ccc(O)cc2O)oc2cc(O)cc(O)c12 [Morin, reference compound]
secretion of IL-6 (FIG. 3) ([1]; hCBMC + anti-IgE, morin (100-0.01 μM listed)): only a small effect

O=c1c(O)c(-c2ccc(O)c(O)c2)oc2cc(O)cc(O)c12 [Quercetin, quercetin]
Inhibition (% of total) IL-6 [2]: 96.3 % of total
Inhibition (% of total) TNF-α [3]: 88.3 % of total
IL-6 (pg/ml/5 × 105cells) [1, 8]: 21.4 pg/ml/5 × 105cells
Inhibition (% total) [1, 8]: 32.9 % total
secretion of IL-6 (FIG. 3) ([1]; hCBMC + anti-IgE, three lower concentrations of quercetin (1, 0.1, 0.01 μM)): only slightly reduced
secretion of IL-6 (FIG. 3) ([1]; hCBMC + anti-IgE, two highest concentrations of quercetin (100, 10 μM)): greatly reduced
Inhibition (% of total) IL-6 ([1]; hCBMC stimulated by IgE and anti-IgE, quercetin dihydrate 100 μM, 10 mins prior to stimulus, 6 hrs): 95.8 % of total
secretion of IL-6 from mast cells stimulated by anti-IgE ([1]; hCBMC, 0.1 mM quercetin 30 mins, then anti-IgE 6 hrs, replicated 6 times): profoundly inhibited
IL-6 (pg/10^6 cells) ([1]; hCBMC, quercetin 0.1 mM alone, no anti-IgE): 10.8 pg/10^6 cells
IL-6 (pg/10^6 cells) ([1]; hCBMC, quercetin 0.1 mM for 10 mins prior to addition of anti-IgE): 50.5 pg/10^6 cells
IL-6 (pg/ml/5 × 105cells) [1, 9]: 9.8 pg/ml/5 × 105cells
Inhibition (% of total) TNF-α [4]: 78.3 % of total
IL-6 (pg/ml/5 × 10^5 cells) [5, 10]: 300.1 pg/ml/5 × 10^5 cells
Inhibition (% total) [5, 10]: 32.7* % total
IL-6 (pg/ml/5 × 10^5 cells) [5, 11]: 150.4 pg/ml/5 × 10^5 cells
Inhibition (% total) [5, 11]: 82.0* % total
IL-6 (pg/ml/5 × 10^5 cells) ([5]; quercetin 10 μM alone): 74.9 pg/ml/5 × 10^5 cells
IL-6 (pg/ml/5 × 10^5 cells) ([5]; quercetin 100 μM alone): 56.1 pg/ml/5 × 10^5 cells
IL-6 (pg/ml/10^5 cells) ([6]; HMC-1 + IL-1 (50 ng/ml)): 299.0 pg/ml/10^5 cells
Inhibition (% total) ([6]; HMC-1 + IL-1 (50 ng/ml)): 5.37 % total
IL-6 (pg/ml/10^5 cells) [6, 12]: 79.8 pg/ml/10^5 cells

CN1CCCC(n2nc(Cc3ccc(Cl)cc3)c3ccccc3c2=O)CC1 (centres unmarked) [Azelastine, reference compound]
inhibition of IL-6 secretion from hCBMC ([1]; azelastine at concentrations below 1 μM): ineffective
IL-6 (pg/ml/5 × 105cells) [1, 8]: 30.6 pg/ml/5 × 105cells
inhibition of IL-6 secretion from hCBMC (FIG. 4) ([1]; hCBMC + anti-IgE, dose-dependent): potent inhibitor
IL-6 secretion (FIG. 4) ([1]; hCBMC, azelastine 60 μM): below control levels
IL-6 (pg/ml/5 × 105cells) [1, 9]: 11.9 pg/ml/5 × 105cells

CRH: corticotropin-releasing hormone (SEEPPISLDLTFHLLREVLEMARAEQLAQQAHSNRKLMEII; ends and bridges not checked; UniProt P06850 154-194, looked up)
IL-6 (pg/ml/5 × 10^6 cells) ([1]; hCBMC, stimulus alone: CRH 5 × 10^−5M, IL-1 50 ng/ml, anti-IgE 10 μg/ml): 33.3 +/− 3.5 pg/ml/5 × 10^6 cells
Tryptase % total [7]: 4.20 % total and 4.26 % total

B1: IL-10: interleukin-10 (protein, UniProt P22301 19-178, looked up)
Interleukin-10: SPGQGTQSENSCTHFPGNLPNMLRDLRDAFSRVKTFFQMKDQLDNLLLKESLLEDFKGYLGCQALSEMIQFYLEEVMPQAENQDPDIKAHVNSLGENLKTLRLRLRRCHRFLPCENKSKAVEQVKNAFNKLQEKGIYKAMSEFDIFINYIEAYMTMKIRN
IL-6 (pg/ml/10^5 cells) ([6]; HMC-1 + IL-1 (50 ng/ml)): 275.9 pg/ml/10^5 cells
Inhibition (% total) ([6]; HMC-1 + IL-1 (50 ng/ml)): 31.32 % total
IL-6 (pg/ml/10^5 cells) [6, 12]: 85.6 pg/ml/10^5 cells
